“And” between values parts separate entries of the source, which are not always exact repeats. Equal entries are not always repeated.
Columns and labels:
L. salmonis = assay: All three studies summarised: oral treatment of Atlantic salmon against L. salmonis; assay type: in vivo, Lepeophtheirus salmonis
Procedure: (§1) Three studies were carried out at the Institute of Aquaculture Marine Environmental Research Laboratory in Machrihanish, Scotland. Atlantic salmon, Salmo salar L., post-smolts were obtained from a disease free stock and acclimatised at the test facility.
(§2) Fish were held in replicate groups in plastic fiber tanks, each with a volume of 0.54 m^3. Each tank was supplied with natural sea water at ambient temperature (7-14° C.) and salinity (30-35 ppt), at flow rates of approximately 18 l. min^−1. The tanks were fitted with mesh screens over the water outlet to retain uneaten fish pellets. Fish were observed daily for behavior and adverse drug reactions. Fish mortalities and the occurrence of gross sea lice damage were also recorded.
(§3) Sea lice were collected during harvesting on commercial salmon farms on the west coast of Scotland. Egg strings collected from gravid female lice were incubated in sea water at ambient temperature and within a salinity range of 32-35 ppt. Once the hatched larvae reached the copepodite stage, 38-170 copepodites per fish were introduced into each of four replicate tanks of fish and the water supply to each tank was turned off for approximately three hours to allow attachment of copepodites to the fish. This was repeated 4-5 times at intervals of 3-5 days until chalimus stages I, II, III and IV were present. Chalimus numbers were evaluated at day −1 or day −2 pre-treatment, on sub-samples of fish (N=6-9 fish per tank). At this point, fish were infested with pre-adult and adult lice, by adding 5-10 lice per fish to each tank. Water supplies to each tank were turned off for around one hour until all the lice had attached to the fish. Pre-treatment lice numbers were based on a sub-sample of the total population and presented as the mean number of chalimus per fish. Fish were then randomly re-distributed from the four original tanks to each control or treatment tank, as described in the experimental design for each study, and no further infestations were carried out during or after treatment.
(§4) The basal ration was Fulmar™ (BOCM Pauls Ltd.) 3.5 or 5 mm salmon feed pellets. Emamectin benzoate was dissolved in propylene glycol and mixed with fish oil prior to top coating the feed pellets. Control feeds were prepared in the same way with propylene glycol and fish oil. Treatment was administered at nominal dose rates of 0, 25, 50 and 100 μg kg^−1 fish biomass per day, at a feed rate of 0.5% biomass, for a period of seven consecutive days (days 0-6). Actual daily feed consumption was measured in each tank by collecting the uneaten feed pellets approximately thirty minutes after administration and subtracting the number of pellets from the daily ration fed. The mean dose consumed was calculated for each group as follows: [formula] Mean feed consumption (%)×nominal dose rate (μg·kg^−1)=Mean dose consumed (μg·kg^−1)
(§5) Evaluation of sea lice numbers was carried out at 7, 14 and 21 days from the start of treatment. Fish were anaesthetised in 40 mg·l^−1 ethyl-P-aminobenzoate (benzocaine) and each fish examined under a low power microscope. Lice were identified as chalimus I-IV, pre-adult I or II and adult stages. Pre-adults and adult lice were additionally identified as males or females. The numbers of each developmental stage were recorded. Any lice which detached in the anaesthetic solution were included in the counts and reattached to the fish after transferring them to fresh seawater. The fish were returned to the holding tanks after sampling and the same fish were evaluated at days 7, 14 and 21.
Results were summarised as chalimus (chalimus stages I-IV), motile lice pre-adult and adult stages) and total lice (chalimus and motile stages combined). Data on the number of lice per fish were subjected to F-tests for homogeneity of variances and a correlation test to examine the normality of distribution. Fish weights and pre-treatment lice counts were tested by one-way ANOVA. […]

[1] = test system: sea lice, Lepeophtheirus salmonis; assay: Dose confirmation study II: efficacy of emamectin benzoate in feed against induced sea lice infestations on Atlantic salmon; assay type: in vivo
Procedure: as §1, §2, §3, §4, §5
The water temperature was 9-12° C. and salinity was 30-34 ppt. Pre-treatment, mean fish weights were 418.2 g (±49 g S.D). Emamectin benzoate was administered at se rates of 0 and 50 μg kg^−1 biomass. There were three replicate tanks per treatment with a sample size of 15-16 fish per tank. […]

[2] = dose rate 50 μg kg^−1, three studies
[3] = nominal dose 50 μg·kg^−1/day (consumed 45.7) in feed Day 0-6, Day 7
[4] = nominal dose 50 μg·kg^−1/day (consumed 45.7) in feed Day 0-6, day 21
[5] = nominal dose 50 μg·kg^−1/day in feed Day 0-6, Day 14
[6] = nominal dose 50 μg·kg^−1/day in feed Day 0-6, Day 21

## emamectin benzoate
L. salmonis; 50 μg kg^−1, day 7 from the start of medication, three studies
  reduction of motile lice numbers: 58-80%
L. salmonis; [2]
  Percentage of fish with no motile lice present: ≤ 87%
  percentage of fish with no lice present of any stage: 20-30%
  reductions in sea lice numbers consistently achieved: 94-95%
L. salmonis; oral treatment of Atlantic salmon
  efficacy against the immature chalimus stages: highly effective
L. salmonis; oral treatment of Atlantic salmon, all three studies
  efficacy against the motile and chalimus stages of L. salmonis: very good efficacy
[1]; 50 μg kg^−1 groups, by day 21 (21% of control fish had lesions)
  cranial lesions resulting from sea lice activity: No cranial lesions
[1]; [3]
  % Reduction relative to controls (Total lice): 46% and 45.9%
  Mean Total lice (± S.D): 40.5 ± 12.2
  Mean chalimus (± S.D): 30.0 ± 11.8
  Mean motiles (± S.D): 10.5 ± 8.1
[1]; nominal dose 50 μg·kg^−1/day (consumed 45.7) in feed Day 0-6, Day 21
  % Reduction relative to controls (Total lice): 95% and 94.6%
[1]; [4]
  Percentage of fish with no lice present (chalimus or motiles): 27%
  Percentage of fish with no motile lice present: 66% and 66.3%
[1]; [5]
  % Reduction relative to controls (Total lice): 70.7%
  Mean Total lice (± S.D): 14.7 ± 5.9
  Mean chalimus (± S.D): 12.7 ± 5.7
  Mean motiles (± S.D): 2.0 ± 3.2
[1]; [6]
  Mean Total lice (± S.D): 2.1 and 2.1 ± 2.1
  Mean chalimus (± S.D): 1.5 ± 1.7
  Mean motiles (± S.D): 0.6 and 0.6 ± 1.1
[1]; nominal dose 50 μg·kg^−1/day, mortality figures include culled fish
  Percentage fish mortality: 0%
